Data: ChEMBL document CHEMBL1201862, “PubChem BioAssay data set” (2004)
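1) Cells in 96-well plates. 2) Compound, 48 h, 5 concentrations. 3) Linear interpolation between surrounding doses. 4) Unreached endpoint = highest concentration. GI50 = concentration required for 50% inhibition of growth.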 The source made the active and inactive calls. Rule as the data show it: active = GI50 up to about 1.1 µM and inactive = higher.

Key:
Experiment in all cases: inhibition of tumour cell growth, NCI panel, 48 h
HOP-62 = test system: HOP-62
EKVX = test system: EKVX
SNB-19 = test system: SNB-19
CCRF-CEM = test system: CCRF-CEM
TK-10 = test system: TK-10
IGROV-1 = test system: IGROV-1
M19-MEL = test system: M19-MEL
U-251 = test system: U-251
SNB-75 = test system: SNB-75
HCC 2998 = test system: HCC 2998
LOX IMVI = test system: LOX IMVI
SK-MEL-5 = test system: SK-MEL-5
SR = test system: SR
NCI-H23 = test system: NCI-H23
UACC-257 = test system: UACC-257
OVCAR-8 = test system: OVCAR-8
786-0 = test system: 786-0
SF-295 = test system: SF-295

Measured: GI50

COc1ccccc1NC(=O)C1=C(C)NC(C)=C(C(=O)Nc2ccccc2OC)C1c1cccc2c1OCO2
inactive: HOP-62 > 100 µM | EKVX > 100 µM | SNB-19 91.8 µM | CCRF-CEM 34.6 µM | TK-10 > 100 µM | IGROV-1 > 100 µM | M19-MEL > 100 µM | U-251 > 100 µM | SNB-75 14.1 µM | HCC 2998 85.7 µM | LOX IMVI > 100 µM | SK-MEL-5 46 µM | SR 30.5 µM | NCI-H23 > 100 µM | UACC-257 > 100 µM | OVCAR-8 > 100 µM | 786-0 > 100 µM | SF-295 > 100 µM

CC1=Nc2c(O)nc(S)nc2NC(c2ccc(Cl)c(Cl)c2)C1 (stereo not drawn)
inactive: HOP-62 46.3 µM | EKVX 28.9 µM | SNB-19 > 45 µM | CCRF-CEM > 100 µM | TK-10 > 55.5 µM | IGROV-1 20.1 µM | M19-MEL 18.5 µM | U-251 17.3 µM | SNB-75 80.9 µM | HCC 2998 17.8 µM | LOX IMVI 20 µM | SK-MEL-5 23.6 µM | SR > 100 µM | NCI-H23 19.4 µM | UACC-257 21 µM | OVCAR-8 18.7 µM | 786-0 17.7 µM | SF-295 20.1 µM

COC(=O)/C(=N/O)C(C(=O)C=C(C)C)C(=O)C(=O)Nc1nc2ccc([N+](=O)[O-])cc2s1 (stereo not drawn)
inactive: HOP-62 32.9 µM | EKVX 16.7 µM | SNB-19 67.9 µM | CCRF-CEM 24.7 µM | TK-10 27.3 µM | IGROV-1 36.9 µM | M19-MEL > 100 µM | U-251 49.5 µM | HCC 2998 35.6 µM | LOX IMVI 22.9 µM | SK-MEL-5 43.8 µM | SR 38.1 µM | NCI-H23 25.2 µM | UACC-257 44.6 µM | OVCAR-8 39.5 µM | 786-0 37.3 µM | SF-295 36.8 µM

C[n+]1cn(CC(=O)c2ccccc2)c(C(N)=O)c1N
inactive: HOP-62 > 100 µM | EKVX > 100 µM | SNB-19 > 100 µM | CCRF-CEM > 100 µM | TK-10 > 100 µM | IGROV-1 > 100 µM | M19-MEL 25.2 µM | U-251 94.6 µM | SNB-75 > 100 µM | HCC 2998 > 100 µM | LOX IMVI > 100 µM | SK-MEL-5 33 µM | SR > 100 µM | NCI-H23 > 100 µM | UACC-257 > 100 µM | OVCAR-8 > 100 µM | 786-0 43.7 µM | SF-295 > 100 µM

O/N=C1\C(=C\c2ccc3c(c2)OCCO3)CCCC1C(NO)c1ccc2c(c1)OCCO2 (stereo not drawn)
inactive: HOP-62 22 µM | EKVX 25.2 µM | SNB-19 38.7 µM | CCRF-CEM 16.6 µM | TK-10 24.2 µM | IGROV-1 36.1 µM | M19-MEL 24.9 µM | U-251 19.3 µM | SNB-75 28.7 µM | HCC 2998 22.6 µM | LOX IMVI 15.7 µM | SK-MEL-5 16.4 µM | SR 14.3 µM | UACC-257 20.4 µM | OVCAR-8 31.4 µM | 786-0 32.1 µM | SF-295 31 µM

CC(CC(=O)Nc1ccc(NC(=O)CC(C)/N=N\C(N)=S)cc1)/N=N\C(N)=S (stereo not drawn)
inactive: HOP-62 > 100 µM | EKVX > 100 µM | SNB-19 > 100 µM | CCRF-CEM > 100 µM | TK-10 > 100 µM | IGROV-1 > 100 µM | M19-MEL > 100 µM | SNB-75 > 100 µM | HCC 2998 > 100 µM | LOX IMVI 57.5 µM | SK-MEL-5 > 100 µM | SR 48.9 µM | NCI-H23 > 100 µM | UACC-257 > 100 µM | OVCAR-8 > 100 µM | 786-0 > 100 µM | SF-295 > 100 µM

O=C1Nc2cccc3ncn(c23)C2=C1CCCC2
inactive: EKVX > 100 µM | SNB-19 > 100 µM | CCRF-CEM > 100 µM | TK-10 > 100 µM | IGROV-1 > 100 µM | M19-MEL > 100 µM | U-251 > 100 µM | HCC 2998 > 100 µM | LOX IMVI > 100 µM | SK-MEL-5 > 100 µM | SR > 100 µM | NCI-H23 > 100 µM | UACC-257 > 100 µM | OVCAR-8 > 100 µM | 786-0 > 100 µM | SF-295 > 100 µM

CCOC(=O)C1=C(Nc2ccc(Cl)cc2Cl)OCC1=O
inactive: HOP-62 > 100 µM | SNB-19 > 100 µM | TK-10 > 100 µM | IGROV-1 > 100 µM | M19-MEL > 100 µM | U-251 > 100 µM | SNB-75 > 100 µM | HCC 2998 > 100 µM | LOX IMVI > 100 µM | SR > 100 µM | NCI-H23 > 100 µM | UACC-257 > 100 µM | OVCAR-8 > 100 µM | 786-0 > 100 µM | SF-295 > 100 µM

O=C(C#Cc1ccccc1)N1c2ccccc2CC1c1c[nH]c2ccccc12 (stereo not drawn)
inactive: HOP-62 8.95 µM | EKVX 15.4 µM | SNB-19 30.3 µM | CCRF-CEM 4.63 µM | TK-10 21.4 µM | IGROV-1 3.73 µM | M19-MEL 16.1 µM | U-251 17.5 µM | SNB-75 11.7 µM | HCC 2998 17.2 µM | LOX IMVI 6.73 µM | SK-MEL-5 14.4 µM | SR 12.3 µM | NCI-H23 12.6 µM | UACC-257 19.1 µM | OVCAR-8 11.6 µM | 786-0 16.2 µM | SF-295 15.5 µM

CC1=CC2C(C=C1)S(=O)(=O)N1CC21c1ccccc1 (stereo not drawn)
inactive: HOP-62 > 100 µM | SNB-19 > 100 µM | CCRF-CEM > 100 µM | TK-10 > 100 µM | IGROV-1 > 100 µM | M19-MEL > 100 µM | U-251 > 100 µM | SNB-75 > 100 µM | HCC 2998 > 100 µM | LOX IMVI 33.5 µM | SK-MEL-5 > 100 µM | SR 90.8 µM | NCI-H23 > 100 µM | UACC-257 > 100 µM | OVCAR-8 > 100 µM | 786-0 > 100 µM | SF-295 > 100 µM

Cn1cc2ccccc2c1-c1nc(F)nc(F)n1
inactive: HOP-62 > 100 µM | EKVX > 100 µM | SNB-19 > 100 µM | CCRF-CEM 97.9 µM | TK-10 > 100 µM | IGROV-1 > 100 µM | M19-MEL > 100 µM | U-251 > 100 µM | SNB-75 92.3 µM | HCC 2998 > 100 µM | LOX IMVI > 100 µM | SK-MEL-5 > 100 µM | SR 41.6 µM | NCI-H23 > 100 µM | 786-0 > 100 µM | SF-295 > 100 µM

Cc1ccc(C)c(N2C(=O)C(=O)C(c3nc4ccccc4s3)/C(=N/N)C2=O)c1 (stereo not drawn)
inactive: HOP-62 > 100 µM | EKVX > 100 µM | SNB-19 > 100 µM | CCRF-CEM > 100 µM | TK-10 > 100 µM | IGROV-1 > 100 µM | M19-MEL > 20.2 µM | U-251 > 100 µM | SNB-75 > 100 µM | HCC 2998 > 100 µM | LOX IMVI > 100 µM | SK-MEL-5 > 100 µM | SR > 100 µM | NCI-H23 > 80.5 µM | UACC-257 > 27.9 µM | 786-0 > 100 µM
